Laboratory results: the supplement of paper PMC3937590

Experiments:
Assay in all cases: -log10 GI50 (growth inhibition 50%) (-log10(M)); higher = more potent growth inhibition
SUM185PE = system: SUM185PE
Summary of the method: (§1)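 Dose-response data came from breast cancer cell lines exposed to each compound for 72 hours at nine doses in 1:5 serial dilution, in triplicate, and read by luminescence relative to a time-zero plate. A Gompertz curve fitted by nonlinear least squares gave GI50, the molar concentration for the set level of growth inhibition, reported as its negative logarithm to base 10. Where a value equals the top dose, it carries a < qualifier.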

BT20 = system: BT20
Summary of the method: as §1

HCC1937 = system: HCC1937
Summary of the method: as §1

MDAMB453 = system: MDAMB453
Summary of the method: as §1

T47D_KBluc = system: T47D_KBluc
Summary of the method: as §1

BT474 = system: BT474
Summary of the method: as §1

ZR75B = system: ZR75B
Summary of the method: as §1

HCC1428 = system: HCC1428
Summary of the method: as §1

SUM52PE = system: SUM52PE
Summary of the method: as §1

HBL100 = system: HBL100
Summary of the method: as §1

HCC202 = system: HCC202
Summary of the method: as §1

| Compound | -log10 GI50 (SUM185PE) | -log10 GI50 (BT20) | -log10 GI50 (HCC1937) | -log10 GI50 (MDAMB453) | -log10 GI50 (T47D_KBluc) | -log10 GI50 (BT474) | -log10 GI50 (ZR75B) | -log10 GI50 (HCC1428) | -log10 GI50 (SUM52PE) | -log10 GI50 (HBL100) | -log10 GI50 (HCC202) |
| --- | --- | --- | --- | --- | --- | --- | --- | --- | --- | --- | --- |
| C[C@]12O[C@H](C[C@]1(O)CO)n1c3ccccc3c3c4c(c5c6ccccc6n2c5c31)CNC4=O [Lestaurtinib] | 7.2 | 5.53 | 6.21 | 6.19 | 5.17 | 6.61 | 6.34 | 6.3 | 6.87 |  |  |
| COc1ccc(C2=N[C@@H](c3ccc(Cl)cc3)[C@@H](c3ccc(Cl)cc3)N2C(=O)N2CCNC(=O)C2)c(OC(C)C)c1 [Nutlin 3a] | 4.54 | 4.41 | 4.65 | 4.25 | 4.5 | 4.8 | 5.69 | 4.5 | 4.74 | 4.32 | 5.02 |
| COc1cccc(-c2cc(=O)c3ccccc3o2)c1N | 4.88 | 4.45 | 4.5 | < 4.3 | < 4.3 | 4.58 | 4.59 | < 4 | 4.92 |  |  |
| CC(C)C[C@@H](C=O)NC(=O)[C@H](CC(C)C)NC(=O)[C@H](CC(C)C)NC(=O)OCc1ccccc1 [MG-132] | 7.01 | 6.37 | 6.82 | 6.41 | 6.77 | 6.75 | 6.4 | 6.46 | 7.12 |  |  |
| COc1ncc(-c2ccc3nccc(-c4ccnnc4)c3c2)cc1NS(=O)(=O)c1ccc(F)cc1F |  | 7.8 | 7.57 | 8.33 | 7.71 | 8.36 | 8.31 | 7.57 | 8.46 |  | 9.25 |
| Cn1c(=O)n(-c2ccc(C(C)(C)C#N)cc2)c2c3cc(-c4cnc5ccccc5c4)ccc3ncc21 [BEZ235] | < 4.48 | 5.6 | < 4.48 | 6.92 | < 4.48 | 6.65 | 6.85 | 5.51 | 5.51 |  |  |
| Cc1cc(C(=O)N2CCN(c3cccc(Cl)c3)CC2)n(-c2ccccc2)n1 [XRP44X] |  | 5.29 | < 3.88 | 6.01 |  | 4.61 | 5.9 | 5.85 | 6.06 |  |  |
| CS(=O)(=O)CCNCc1ccc(-c2ccc3ncnc(Nc4ccc(OCc5cccc(F)c5)c(Cl)c4)c3c2)o1 [Lapatinib] | < 4.78 | < 4.78 | < 4.78 | 5.29 | < 4.78 | 6.4 | < 4.78 | < 4.78 | < 4.78 |  | 6.12 |
| O=C1c2ccccc2-[n+]2ccc3c([nH]c4ccccc43)c21 [Fascaplysin] | 7.26 | 6.51 | 6.41 | 7.06 | 7.31 | 6.73 | 6.39 | 7.43 | 6.74 | 6.26 | 7.37 |
| N#Cc1c(-c2ccccc2)cc(-c2cc(Br)ccc2O)[nH]c1=O [TCS PIM-11] | 4.67 | < 3.88 | < 3.88 | < 3.88 | < 3.88 | < 3.88 | < 3.88 | 4.09 | 4.72 |  |  |
| O=S(=O)(CC1CS1)c1ccc(Oc2ccccc2)cc1 (configuration not stated) [SB-3CT] | 4.75 | 4.21 | < 4 | < 3.78 | < 3.78 | 4.99 | 4.62 | 4.24 | 4.33 |  |  |
| CCN(CC)CCNC(=O)c1c(C)[nH]c(/C=C2\C(=O)Nc3ccc(F)cc32)c1C [Sunitinib malate] | 5.98 | 4.79 | 5.16 | 5.3 | 5.12 | 4.78 |  | 5.29 | 5.94 | 5.34 | 5.03 |
| O=c1[nH]c2ccccc2n1C1CCN(Cc2ccc(-c3[nH]c4cc5ncnc5cc4nc3-c3ccccc3)cc2)CC1 [Akt inhibitor VIII] | 5.95 | 5.09 | 5 | 5.73 | 5.31 | 6.08 | 5.93 | 5.35 | 5.85 |  |  |
| COc1cc2c(Nc3ccc(NC(=O)c4ccccc4)cc3)ncnc2cc1OCCCN1CCOCC1 | 4.5 | 5.33 | 5.23 | < 4.3 | < 4.3 | 4.29 |  | 4.56 | 5.46 |  |  |
| O=c1cc(-c2ccccc2)oc2cc(O)c(O)c(O)c12 [Baicalein] |  | 4.05 | 4.46 | 3.8 | 4 | 4.3 | 4.36 | 4.41 | 4.42 |  | 4.41 |
| COc1cc(Nc2c(C#N)cnc3cc(OCCCN4CCN(C)CC4)c(OC)cc23)c(Cl)cc1Cl [Bosutinib] |  | 5.89 | 5.84 |  | < 4.48 | 5.71 | 5.15 | 5.43 | 5.85 |  |  |
| O=C1NC(=O)/C(=C/c2ccc(-c3ccc(F)cc3O)o2)S1 |  | 4.93 | < 4.18 | 4.69 | < 4.48 | 5.41 | 5.04 | 5.34 | 4.69 |  |  |
| C#Cc1cccc(Nc2ncnc3cc(OCCOC)c(OCCOC)cc23)c1 [Erlotinib] | < 4.18 | 5.7 | 4.41 | 4.77 | < 4.18 | 4.98 | < 4.18 | 4.75 | 4.98 | < 4.18 | 5.57 |
| O=C1C(Cl)=C(NCCN2CCOCC2)C(=O)c2ncccc21 | 6.5 | 5.49 | 6.07 | 5.26 | 5.38 | 5.56 | 5.26 | 5.44 | 5.62 |  |  |
| CNC(=O)c1cc(Oc2ccc(NC(=O)Nc3ccc(Cl)c(C(F)(F)F)c3)cc2)ccn1 [Sorafenib] | 5.83 | 4.2 | 3.76 | 3.09 | 4.38 | 4.16 | 3.16 | 4.34 | 5.77 | 4.33 | 4.14 |
| CCCCCN(C)CCC(O)(P(=O)(O)O)P(=O)(O)O [Ibandronate sodium] |  | 4.69 | 4.53 | 3.97 | 3.92 | 3.98 | 3.84 | 3.89 | 4.47 |  |  |

| Compound | -log10 GI50 (SUM185PE) | -log10 GI50 (BT20) | -log10 GI50 (HCC1937) | -log10 GI50 (MDAMB453) | -log10 GI50 (T47D_KBluc) | -log10 GI50 (BT474) | -log10 GI50 (ZR75B) | -log10 GI50 (HCC1428) | -log10 GI50 (SUM52PE) | -log10 GI50 (HBL100) | -log10 GI50 (HCC202) |
| --- | --- | --- | --- | --- | --- | --- | --- | --- | --- | --- | --- |
| NS(=O)(=O)OC[C@@H]1C[C@@H](n2ccc3c(N[C@H]4CCc5ccccc54)ncnc32)C[C@@H]1O [MLN4924] | 7.27 | 5.7 | 5.58 | 5.81 | 6.71 | 6.24 | 6.84 | 6.94 | 6.41 |  |  |
| CC(/C=C/C(=O)NO)=C\[C@@H](C)C(=O)c1ccc(N(C)C)cc1 [Trichostatin A] | 4.76 | 4.68 | 4.82 | 5.22 | 5.4 | 5.01 | 5.3 | 5.73 | 5.58 |  | 6.4 |
| CNC(=O)c1c(F)cccc1Nc1nc(Nc2cc3c(cc2OC)CCN3C(=O)CN(C)C)nc2[nH]ccc12 | 5.48 | 4.86 | 4.71 | 4.96 | 5.13 | 5.08 | 5.01 | 5.79 | 5.68 | 4.76 | 5.05 |
| Cc1ccc(NC(=O)c2ccc(CN3CCN(C)CC3)cc2)cc1Nc1nccc(-c2cccnc2)n1 [Imatinib] | 4.91 | 4.89 | 4.69 | 4.95 | 4.67 | 4.52 | 4.63 | 4.8 | 4.65 | 4.62 | 5.81 |
| NS(=O)(=O)c1ccc(Nc2nc(OCC3CCCCC3)c3[nH]cnc3n2)cc1 [NU6102] | 5.02 |  | 4.27 | 4.91 | 4.43 | 4.79 | 4.85 | 4.87 | 5.27 |  |  |
| Oc1cc(-c2nc(-c3ccccc3)[nH]c2-c2ccncc2)ccc1Cl | 5.19 | 4.62 | 4.84 | < 4.48 |  | 4.79 | 4.51 | 4.97 | 5.13 |  |  |
| CCNCCCCNCCCCNCCCCNCCCCNC/C=C/CNCCCCNCCCCNCCCCNCCCCNCC | 6.68 | 6.66 | 4.95 | 6.28 | 6.46 | 6.02 | 6.38 | 6.33 | 6.81 |  | 6.28 |
| O=C(CCCCCCC(=O)Nc1ccccc1)NO [Vorinostat] | 4.42 | 3.74 |  | 4.49 | 3.99 | 4.27 | 4.02 | 4.42 | 4.73 |  | 5.03 |
| CN(C)C/C=C/C(=O)Nc1cc2c(Nc3ccc(F)c(Cl)c3)ncnc2cc1O[C@H]1CCOC1 [BIBW2992] | 5.46 | 5.56 | 5.68 | 7.04 | 5.45 | 8.23 | 5.52 | 5.76 | 5.47 |  |  |
| O=c1[nH]c(=O)n([C@H]2C[C@H](O)[C@@H](CO)O2)cc1F [Floxuridine] |  | 3.49 | 3.37 | 5.79 | 2.8 | 3.37 | 5.16 | 4.04 | 3.45 |  |  |
| Nc1[nH]nc2nnc(-c3c(-c4ccccc4)nn4ccccc34)cc12 | 4.43 | 4.55 | < 4 | < 4 | < 4 | 4.69 | 4.56 | 4.56 | 4.49 |  |  |
| CO[C@H]1C[C@@H]2CC[C@@H](C)[C@@](O)(O2)C(=O)C(=O)N2CCCC[C@H]2C(=O)O[C@H]([C@H](C)C[C@@H]2CC[C@@H](OCCO)[C@H](OC)C2)CC(=O)[C@H](C)/C=C(\C)[C@@H](O)[C@@H](OC)C(=O)[C@H](C)C[C@H](C)/C=C/C=C/C=C/1C [Everolimus] | 5.8 |  | 6.1 | 7.59 | 5 | 7.52 |  | 5.06 | 7.73 |  |  |
| C/C(=C\c1csc(C)n1)[C@@H]1C[C@@H]2O[C@]2(C)CCC[C@H](C)[C@H](O)[C@@H](C)C(=O)C(C)(C)[C@@H](O)CC(=O)N1 [Ixabepilone] | 8.07 | 8.45 | 6.76 | 8.34 | 7.61 | 8.42 | 6.95 | 7.23 | 9.53 |  | 6.37 |
| O=C(O)c1ccc(-c2c[nH]c3ncc(-c4ccccc4)cc23)cc1C1CCCC1 | 4.79 | < 4.48 | < 4.48 | < 4.18 | < 4.18 | < 4.18 | < 4.18 | < 4.18 | < 4.48 |  |  |
| CCCC(CCC)C(=O)O [Valproic acid] | 2.84 | 2.44 | 2.56 | 3.15 | 2.76 | 3.03 | 2.71 | 3.13 | 2.91 |  |  |
| Cc1cc(Nc2cc(N3CCN(C)CC3)nc(Sc3ccc(NC(=O)C4CC4)cc3)n2)n[nH]1 [VX-680] | 5.62 | 5.34 | 5.1 | 5.03 | 4.49 | 4.84 | 6.79 | 5.11 | 6.42 |  |  |
| CC[C@H](CO)Nc1nc(NCc2ccccc2O)c2ncn(C(C)C)c2n1 [Olomoucine II] | 5.98 | 5.43 | 5.2 | 5.31 |  | 5.2 | 5.23 | 5.29 | 5.19 |  |  |
| CC(C(C)N1CC(=O)NC(=O)C1)N1CC(=O)NC(=O)C1 (configuration not stated) [ICRF-193] | < 4.3 | < 4.3 | < 4.3 | 4.88 | < 4.48 | < 4.3 | 6.6 | < 4.3 | 5.6 |  |  |
| Cc1[nH]c2ccccc2c1CCNCc1ccc(/C=C/C(=O)NO)cc1 [LBH589] | 7.11 | 6.41 | 6.72 | 7.31 | 6.88 | 7.46 | 7.08 | 6.98 | 6.83 |  |  |
| Cc1cncc2cccc(S(=O)(=O)N3CCCN(C(=O)CN)C[C@@H]3C)c12 [Glycyl H1152] |  | 5.18 | < 4.18 | 4.58 | < 4.18 | < 4.18 | < 4.18 | < 4.18 | 5.1 |  |  |
